Tests used:
Test in all cases: POST trolley belt sprayer test (Example 3)
Conditions in all cases: 600 g/ha, 14 DAT
[1] = tested on: BP (Blue panicum); format: in vivo, Panicum antidotale
Procedure: (§1) All POST crops and weeds plants were grown into separate square pots which measured 10×10 cm. The soil used was amended with Redi-Eartho Plug and Seedling Mix in a one to one ratio. Ten to twenty seeds per small seeded species were planted per pot. Five to ten seeds were planted with large seeded species. Seeds were sown 0.5 inches deep. Generally, POST plants were 7 to 21 days old (from planting) when sprayed. Grasses were in the 2-4 leaf stage and broadleaf weeds were in the 1-2 true leaf stage.
(§2) The spray volume was 50 gallons per acre (468 I/Ha). Rates of application (grams per hectare) varied depending on the concentration of chemical within each individual spray solution. Technical samples were dissolved in acetone. Formulations are suspended in water. All applications were made using a trolley belt sprayer. The test plants were placed on the belt inside the spray hood. Then the spray nozzle which is attached to the trolley, moves mechanically over the top of the plants. The spray nozzle delivers a flat fan spray pattern and is a typical nozzle used in herbicide field applications. The belt carries the plants out of the spray hood and into a drying chamber.
(§3) After spray application, the test plants were placed in a vented cabinet until dry, then placed in the greenhouse. […] The trolley sprayer settings were as follows (50 (GPA) Gallons Per Acre or (468 L/Ha): […]

[2] = tested on: FOX (Foxtail); format: in vivo, Setaria viridis
Procedure: as §1, §2, §3

[3] = tested on: CN (Corn); format: in vivo, Zea mays
Procedure: as §1, §2, §3

[4] = tested on: SMT (Smartweed); format: in vivo, Polygonum lapathifolium
Procedure: as §1, §2, §3

[5] = tested on: NS (Nightshade); format: in vivo, Solanum nigrum
Procedure: as §1, §2, §3

[6] = tested on: NUT (Nutsedge); format: in vivo, Cyperus esculentus
Procedure: as §1, §2, §3

[7] = tested on: RYE (Ryegrass); format: in vivo, Lolium multiflorum
Procedure: as §1, §2, §3

[8] = tested on: MG (Morningglory); format: in vivo, Ipomoea hederacea
Procedure: as §1, §2, §3

[9] = tested on: SOY (Soybean); format: in vivo, Glycine max
Procedure: as §1, §2, §3

[10] = tested on: TEA (Teaweed); format: in vivo, Sida spinosa
Procedure: as §1, §2, §3

[11] = tested on: BID (Bidens); format: in vivo, Bidens pilosa
Procedure: as §1, §2, §3

[12] = tested on: VEL (Velvetleaf); format: in vivo, Abutilon theophrasti
Procedure: as §1, §2, §3

[13] = tested on: COT (Cotton); format: in vivo, Gossypium hirsutum
Procedure: as §1, §2, §3

[14] = tested on: CKL (Cocklebur); format: in vivo, Xanthium pensylvanicum
Procedure: as §1, §2, §3

[15] = tested on: RI (Rice); format: in vivo, Oryza sativa
Procedure: as §1, §2, §3

[16] = tested on: WHT (Wheat); format: in vivo, Triticum spp.
Procedure: as §1, §2, §3

[17] = tested on: BYG (Barnyardgrass); format: in vivo, Echinochloa crus-galli
Procedure: as §1, §2, §3

[18] = tested on: Grassy Weeds (Avg Monocot); format: in vivo
Procedure: as §1, §2, §3

[19] = tested on: Broadleaf Weeds (Avg Dicot); format: in vivo
Procedure: as §1, §2, §3

[20] = tested on: CRB (Crabgrass); format: in vivo, Digitaria sanguinalis
Procedure: as §1, §2, §3

[21] = tested on: SIG (Signalgrass); format: in vivo, Brachiaria platyphylla
Procedure: as §1, §2, §3

[22] = tested on: SPR (Sprangletop); format: in vivo, Leptochloa dubia
Procedure: as §1, §2, §3

[23] = tested on: PIG (Pigweed); format: in vivo, Amaranthus retroflexus
Procedure: as §1, §2, §3

Compound: C[n+]1ccc(-c2cc[n+](C)cc2)cc1 [Paraquat]
- % POST Control of Grassy Weeds [1]: 100%
- % POST Control of Grassy Weeds [2]: 90%
- % Crop Injury [3]: 85%
- % POST Control of Broadleaf Weeds [4]: 100%
- % POST Control of Broadleaf Weeds [5]: 100%
- % POST Control of Grassy Weeds [6]: 85%
- % POST Control of Grassy Weeds [7]: 100%
- % POST Control of Broadleaf Weeds [8]: 100%
- % Crop Injury [9]: 100%
- % POST Control of Broadleaf Weeds [10]: 85%
- % POST Control of Broadleaf Weeds [11]: 100%
- % POST Control of Broadleaf Weeds [12]: 100%
- % Crop Injury [13]: 100%
- % POST Control of Broadleaf Weeds [14]: 100%
- % Crop Injury [15]: 100%
- % Crop Injury [16]: 100%
- % POST Control of Grassy Weeds [17]: 95%
- % POST Control of Grassy Weeds, Avg Monocot [18]: 93%
- % POST Control of Broadleaf Weeds, Avg Dicot [19]: 98%
- % POST Control of Grassy Weeds [20]: 90%
- % POST Control of Grassy Weeds [21]: 85%
- % POST Control of Grassy Weeds [22]: 100%
- % POST Control of Broadleaf Weeds [23]: 100%
